As a reminder, the log P is a log measure of how a compound divides between an organic and an aqueous phase. In general, pKa refers to the pH at which an ionisable group is half protonated.

The text below walks through data of paper PMC11755785 (Langmuir, 2025).

Like-named read-outs stand apart in the source and are kept apart here. Where only a bound is given, the exact number is not on record here.

Data set [1] is described as follows: Photostability under solar light, UV–vis spectra. In kind it is physicochemical. Conditions: solar light 4 h, 50 μM. The protocol: The photostability of the drug under solar light was evaluated using UV–vis spectral measurements. Sample solutions were exposed to solar light outdoors at a sunny location on a latitude of 35.92° N and a longitude of 139.91° E for 4 h, from 12:00 to 16:00, at an average temperature of 284.55 K.

The conditions of data set [2]: cited from earlier work.
For data set [3] the following is noted: cited from earlier work. This is another data set of the same source.
The nature of data set [4]: Phase-solubility diagram with β-CD. The protocol: The solutions were mechanically shaken at 298 K in a thermostatic chamber, and the supernatant was sampled and filtered after passage for appropriate periods. The concentration of the drug in the supernatant was determined using HPLC.
The phase-solubility diagram consists of the equilibrium concentration of the guest drug as the ordinate and the total concentration of the host CD as the abscissa.[45] If a straight line and parabolic curve can be approximated on the phase-solubility diagram, then, the curves are classified as AL- and AP-types in the Higuchi and Connors catalogs, respectively.[45],[46]
Multiple regression analysis of the measured data set to the total concentration of the host ([CD]) and its squares ([CD]^2) using eq 3 can be used to obtain the stability constants for a combination of the equimolar complex K1:1 and double-host associating complex K1:2.[45],[46] [drawing 3] 3 This is the sum of the dissociated (free) and associated (complexed) drug concentrations. Although the Benesi–Hildebrand equation with the square of the host concentration has been used for parabolic correlations, its validity remains unclear.
This curve is classified as the AN-type on the Higuchi and Connors catalog.[45]−[48] The curve is described by eq 4′ according to the Langmuir adsorption isotherm model.[47]−[51] To process with the linear regression analysis of ordinate ([CD]/γ) referred to abscissa ([CD]), the Hanes–Woolf expression in eq 4′ may be used [drawing 4] 4 [drawing 5] 4′ where n indicates the asymptotic concentration of the drug associated with CD (saturation, maximal γ) and K is equivalent to the drug/CD complex stability constant. […] The stoichiometry of a complex of drugs with CD is difficult to determine; the prevailing opinion is that more than one guest molecule incorporates a host molecule and that hydration or ionization of the guest regulates the solubility of the complex.[46]
Szejtili[46] stated that, in rare cases, the ascending region at lower host concentrations is followed by a plateau region, similar to that of the AN-type saturation curve. Simultaneously, it terminates at any host concentration threshold. It is named the BS-type in the Higuchi and Connors catalog,[45]−[48] and for concentrations higher than the threshold, the guest concentration decreases along a hyperbola, probably according to the solubility product KSP.[49] To analyze this type of pattern, a hypothesis that is yet to be discussed is required.[52] […] At the threshold concentration of CD, the scale of the aggregated dispersoids transcends an upper limit, and the aggregation induces subsequent sedimentation.[52] Thus, the solubility product may be considered a property of poorly soluble aggregated dispersoids containing a tolerable amount of the drug and an excess amount of CD.

A short description of data set [5]: UVA1 (365 nm) photodegradation in isochoric acetonitrile/water solvent. It is filed as physicochemical. The protocol:
(§1) The samples were obtained after passage for appropriate periods and measured using an UV–vis spectrophotometer in the maximum range between 200 and 700 nm (arranged on demand) from long wavelengths toward short wavelengths to avoid unnecessary irradiation of the UV region. To obtain HPLC chromatograms, aliquots of the UV-irradiated solution were obtained by pipetting at 0, 1/5, 1/2, 1, 2, 3, 4, 24, 48, 72, 96, 120, 144, and 168 h for AVB and at 0, 1, 2, 3, and 18 h for CUR. To obtain those of OXB in the absence or presence of β-CD, the invariable samples were certified at 0 and 48 h. For the samples in acetonitrile aqueous solution or methanol aqueous solution at a ratio of 7:3, the time evolution of the UVA1 irradiated solution was examined under similar conditions.

Data set [6] in a line: Phase-solubility diagram with HP-β-CD. In kind it is physicochemical. Details: stability constant K1:2 with HP-β-CD: unit not given here.
Data set [7] is described as follows: Flask-shaking 1-octanol/water partition, log D–pH profile fitted to Avdeef's diagram. It is filed as physicochemical. Conditions: modified Britton–Robinson buffers pH 5–11.5, 298 K. The protocol:
The aqueous-phase solvents were prepared by mixing 25 mM KH2PO4 and 25 mM Na2HPO4 solutions in 25 mM Pi buffer. The pH was adjusted before fixing the prescribed concentrations of the acid components of the buffer. The JP1 and JP2 buffer solutions were 10 mM sodium citrate/HCl buffer (pH 1.2) and Pi buffer (pH 6.8), which were prepared in compliance with the description for solution media for the dissolution test in Japanese Pharmacopeia (JP)-implemented international harmonization. The modified Britton–Robinson universal pH buffer comprised 28.6 mM KH2PO4, 28.6 mM HBO2, and 28.6 mM NaCl, titrated with 1 M NaOH (here, modified means elimination of barbital to cancel its interaction with organic solutes). For the partition equilibrium examination, the aqueous saturated 1-octanol phase comprised 1-octanol, which was flooded with a modified Britton–Robinson buffer adjusted to the appropriate pH in advance.
The hydrophobic drug dissolved in the aqueous saturated 1-octanol phase was mixed with an isochoric solution of the modified Britton–Robinson buffer (pH 5–11.5), saturated with 1-octanol. Thereafter, the samples in the screw-capped vials were machine-shaken at 298 K in a thermostatic chamber for 60 min and subsequently kept stationary for 60 min; the procedure corresponds to the conventional “flask-shaking” method.[41]−[43] After settling, the pH in the aqueous phase was confirmed using pH indicator strips (MColoHast pH 0–6.0, MQuant pH 7.5–14, and MQuant pH 0–14, Merck, Germany) to be that of the adjusted pH value. Aliquots (10 μL) from the 1-octanol and the aqueous layers were injected into the HPLC instrument. The 1-octanol/water partition coefficients, log P (equivalent to log KOW), and acid dissociation constants, pKa, were optimized using curve fitting, approximated by eq 1 [drawing 1] 1 which is Avdeef’s diagram[44] derived from the Henderson–Hasselbalch expression for the equilibrium between the protonated and deprotonated species. The curve-fitting procedures used the solver module of Microsoft Excel 2016 with the implemented GRG nonlinear option. Approximate curves corresponding to these optimized parameters were drawn, and the pKa and log P values for AVB, OXB, and CUR were obtained.

The nature of data set [8]: UVA1 (365 nm) photodegradation in aqueous buffer, UV–vis spectra / RP-HPLC. It is filed as physicochemical. Conditions: for disruption on exposure to UV light: 4 h; for UVA1 photodegradation (spectral change): 50 μM, aqueous. The protocol:
as §1

The conditions of data set [9]: cited from earlier work. This is another data set of the same source.
On the set-up of data set [10]: method as in Yan et al. 95. Conditions: ref Yan et al. 95; cited from earlier work.
Details of data set [11]: method as in PMID 34606770. Conditions: Chart 1; cited from earlier work.
[12] abbreviates: 25 mM Pi/NaOH buffer pH 6.8, 298 K, Figure 2.
[13] abbreviates: 25 mM Pi/NaOH buffer pH 6.8, 298 K, Figure 2, in M-1 (unit assumed).

In the case of curcumin, in [1] (presence of β-CD), the “change in absorption peaks under solar light” value is “significant changes in absorption peaks”. The “stability constant K1:1 with HP-β-CD” value in [2] (ref Celebioglu and Uyar 84) is 3073 M^–1; in data set [2] (ref Li et al. 85) it was 2941 M^–1; in data set [6] (setting [13]), 6619; in data set [6] (pH 6.8) it was 6619 M^–1. In data set [3], the “log P” value was 3.2. In data set [3], the “updated pKa (first value)” value is recorded as 7.56. Besides, the “updated pKa (second value)” value in data set [3] is on record as 8.72. Also, the “updated pKa (third value)” value in data set [3] was 10.17. Also, the “pKa (keto-enol)” value in [3] (first of three pKa values) is given as 7.8. Further, the “pKa (first phenolic OH)” value in data set [3] (second of three pKa values) is 8.5. For the same compound, the “pKa (second phenolic OH)” value in data set [3] (third of three pKa values) is recorded as 9.0. Besides, the “stability constant K1:2 with β-CD” value in data set [4] (setting [12]) was 74.41. In addition, the “stability constant K1:1 with β-CD” value is 771.7 in [4] (setting [13]), 771.7 M^–1 in data set [4] (pH 6.8), 198 M^–1 in data set [9] (ref Chen et al. 83) and 487.3 M^–1 in data set [9] (ref Mashaqbef et al. 81). In [4] (pH 6.8), the “phase-solubility diagram type (Higuchi and Connors) with β-CD” value is listed as “AP-type”. The “effect of equimolar and 4 mM β-CD on photodegradation velocity / first-order rate” value in data set [5] (UVA1 365 nm, 25 μM) is “decreased”. The “stability constant K1:2 with HP-β-CD” value in data set [6] (setting [12]) stood at 2.302. Further, the “phase-solubility diagram type (Higuchi and Connors) with HP-β-CD” value in data set [6] (pH 6.8) is given as “AP-type”. In addition, the “acid dissociation constant, pKa” value in [7] (from log D–pH curve fitting) turned out to be 8.81. Also, the “1-octanol/water partition coefficient, log P” value in data set [7] (neutral form, curve fitting) worked out at 2.65. Further, the “disruption on exposure to UV light” value in data set [8] (solution containing β-CD) is given as 31.90%; in data set [8] (solution without β-CD), 40.95%. Further, the “CUR saturation concentration in reported AN-type diagram” value in data set [9] is listed as no more than 0.00012 mM. For the same compound, the “CUR solubility in reported phase-solubility diagram” value in data set [9] (speculated by the authors from the report) is no more than 16 µM. Also, the “degradation under 425 nm light compared to 620 nm light” value in data set [10] is 1.7 times faster.
For `CCOCCOC(=O)C=Cc1ccc(OC)cc1` [Cinoxate, cinoxate], in data set [11], the water solubility entry is recorded as “high water solubility”.
With `CC(O)COC[C@H]1O[C@@H]2O[C@H]3[C@H](O)[C@@H](O)[C@@H](O[C@H]4[C@H](O)[C@@H](O)[C@@H](O[C@H]5[C@H](O)[C@@H](O)[C@@H](O[C@H]6[C@H](O)[C@@H](O)[C@@H](O[C@H]7[C@H](O)[C@@H](O)[C@@H](O[C@H]8[C@H](O)[C@@H](O)[C@@H](O[C@H]1[C@H](O)[C@H]2O)O[C@@H]8COCC(C)O)O[C@@H]7COCC(C)O)O[C@@H]6COCC(C)O)O[C@@H]5COCC(C)O)O[C@@H]4COCC(C)O)O[C@@H]3COCC(C)O` (stereo partly drawn) [HP-β-CD, hydroxypropyl-β-cyclodextrin], the aqueous solubility entry in data set [3] is “more than 400 mmol/L”.
On to `CCCCC(CC)COC(=O)c1ccc(N(C)C)cc1` (stereo not shown) [Padimate-O, padimate O], for which the “risk / toxicity property” value in [11] was “insignificant risks”.
Regarding `CCCCC(CC)COC(=O)C(C#N)=C(c1ccccc1)c1ccccc1` (stereo not shown) [Octocrylene (OCR), octocrylene], the biodegradability entry in [11] is given as “poorly biodegradable”.
Regarding `CCCCC(CC)COC(=O)C=Cc1ccc(OC)cc1` (stereo not shown) [Octinoxate (OCX), octinoxate], the “risk / toxicity property” value in data set [11] was “toxic risks for the marine ecosystem”.
With `COc1ccc(C(=O)c2ccccc2)c(O)c1` [OXB], the “stability under solar light compared to UVA1 irradiation” value in data set [1] (presence or absence of β-CD) is “more significant than that observed under UVA1 irradiation”. Moreover, in [3] (Chart 1), the “log Kow” value is 3.79. Besides, the “reported pKa” value in data set [3] is given as 7.6. In [4] (setting [13]), the “stability constant K1:1 with β-CD” value came out at 2019. Moreover, the “concentration change under UVA1 irradiation (290 nm absorbance)” value in data set [5] (up to 50 h) was “marginally reduced”. The “stability constant K1:1 with HP-β-CD” value in data set [6] (setting [13]) is reported as 366.8. In [6] (pH 6.8), the “phase-solubility diagram type (Higuchi and Connors) with HP-β-CD” value is “AL-type”. Also, the pKa in [7] (from log D–pH curve fitting, read-out: acid dissociation constant, pKa) was found to be 7.97. Also, the logP in data set [7] (neutral form, curve fitting, read-out: 1-octanol/water partition coefficient, log P) stood at 2.99. The “UVA1 photodegradation (spectral change)” value in data set [8] (absence of β-CD) and in data set [8] (presence of β-CD) was “maintenance of the OXB spectrum for 2 days” each time.
Turning to `CC1CC(OC(=O)c2ccccc2O)CC(C)(C)C1` (stereo not shown) [Homosalate, homosalate], the “risk / toxicity property” value in data set [11] is reported as “endocrine-disrupting”.
Consider `O=S(=O)(O)c1ccc2[nH]c(-c3ccccc3)nc2c1` [Ensulizole, ensulizole], for which, in data set [11], the “risk / toxicity property” value is “With photo-oxidizing properties”.
